Our source for the IC50 values is patent US12673946B2, “Pyrimidin-4(3H)-one derivatives as TRPV4 antagonists” (RaQualia Pharma Inc., priority 2020, dated 2026).

Broadly, the pIC50 is the negative decadic logarithm of the IC50, by convention in mol/L. A higher pIC50 goes with a small IC50.

This test concerns the target T1, human TRPV4 (Homo sapiens, UniProt Q9HBA0).
T1 construct: host or cells: tetracycline-inducible Flp-In T-REx 293 cells
The experiment in a line: Hypotonicity-induced Ca2+ influx (Fluo-4, FDSS). Format: cell-based. The method, then: Hypotonicity-Induced Ca^2+ Influx
TRPV4 channel activation/opening results in an influx of Ca^2+ (Liedtke, W. et al., 2000 (NPL 1)). The resulting changes in intracellular calcium are monitored using a Ca^2+ sensitive fluorescent dye Fluo-4 (Invitrogen). Dye loaded cells are treated with the test compounds for 5 minutes prior to the addition of a hypotonic solution and the inhibition of the hypotonicity-induced activation is recorded.
Forty microL of tetracycline-inducible Flp-In T-REx 293 cells (Invitrogen) stably expressing human TRPV4 are seeded onto the poly-D-lysine coated 384-well plate (Corning) at a density of 10,000 cells per well. The following day, TRPV4 expression is induced by adding 0.5 microg/mL tetracycline for 20-24 hours. On the day of the experiment, the media is removed and replaced with 40 microL of dye loading buffer [1 microM Fluo-4 AM (Invitrogen), 0.01% Pluronic F-127, and 20 mM HEPES in Hanks' balanced salt solutions (HBSS; Invitrogen)] and then the cells are incubated for 60 minutes at 25° C. Dye is then removed and replaced with 20 microL of assay buffer (20 mM HEPES in HBSS). Five minutes prior to the fluorescence measurement, 10 microL of test compound is added to the cells. Using the FDSS instrument (Hamamatsu Photonics), 30 microL of hypotonic solution (90 mM D-mannitol and 1.26 mM CaCl2 in ultrapure water) is added 30 seconds after the start of measurement. The calcium flux signal is recorded for a total of 4.5 minutes.

The mark [1] stands for this setting: Flp-In T-REx 293 cells expressing human TRPV4, examples listed under heading 'Human IC50<50 nM'.
The mark [2] stands for this setting: Flp-In T-REx 293 cells stably expressing human TRPV4, compounds listed by potency bin (<10 nM Tables 96-1/96-2, <3 nM Table 97).

pIC50: −log10 of the molar value.

T1 sequence (Q9HBA0 whole entry): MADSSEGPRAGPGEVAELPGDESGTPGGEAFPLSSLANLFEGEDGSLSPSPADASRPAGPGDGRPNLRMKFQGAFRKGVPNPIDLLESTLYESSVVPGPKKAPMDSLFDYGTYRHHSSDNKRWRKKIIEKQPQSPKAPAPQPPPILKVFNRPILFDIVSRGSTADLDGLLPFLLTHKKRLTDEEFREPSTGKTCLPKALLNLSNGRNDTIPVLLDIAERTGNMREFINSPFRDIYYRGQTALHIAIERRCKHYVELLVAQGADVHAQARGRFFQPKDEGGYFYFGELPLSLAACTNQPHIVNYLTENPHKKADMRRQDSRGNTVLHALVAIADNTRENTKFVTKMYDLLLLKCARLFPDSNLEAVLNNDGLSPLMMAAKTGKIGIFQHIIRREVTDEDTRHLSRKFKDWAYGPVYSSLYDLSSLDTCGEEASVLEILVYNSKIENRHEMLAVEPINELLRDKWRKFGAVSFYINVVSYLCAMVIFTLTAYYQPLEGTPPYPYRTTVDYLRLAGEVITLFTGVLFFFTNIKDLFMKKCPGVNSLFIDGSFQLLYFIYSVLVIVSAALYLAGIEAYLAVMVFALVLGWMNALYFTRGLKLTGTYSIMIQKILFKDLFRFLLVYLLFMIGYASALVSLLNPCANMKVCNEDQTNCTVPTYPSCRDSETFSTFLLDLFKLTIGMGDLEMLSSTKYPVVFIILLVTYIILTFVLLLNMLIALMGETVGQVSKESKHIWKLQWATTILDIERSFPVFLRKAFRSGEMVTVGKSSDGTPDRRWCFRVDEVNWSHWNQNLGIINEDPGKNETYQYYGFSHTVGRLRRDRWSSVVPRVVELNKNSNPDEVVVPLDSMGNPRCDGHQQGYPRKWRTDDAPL

As for `CC(C)(C)c1cccc(C(O)C(=O)N2CCc3nc(C4(c5ccccc5)CC4)[nH]c(=O)c3C2)c1` (stereo not shown) [14-30], the pIC50 under setting [1] is > 7.30.

Take `O=C(C(O)c1cccc(S(F)(F)(F)(F)F)c1)N1CCc2nc(C3(c4ccccc4)CC3)[nH]c(=O)c2C1` (stereo not shown) [14-31]: under setting [1], the pIC50 is > 7.30.

In the case of `CC(C)c1cccc(C(O)C(=O)N2CCc3nc(C4(c5cccc(F)c5)CC4)[nH]c(=O)c3C2)c1` (stereo not shown) [14-32], under setting [1], the pIC50 was > 7.30.

With `O=C(C(O)c1cccc(OCc2ccccc2)c1)N1CCc2nc(C3(c4cccc(Cl)c4)CC3)[nH]c(=O)c2C1` (stereo not shown) [14-106], the pIC50 runs as follows: under setting [1], > 7.30; under setting [2], > 8.00.

With `CC(C)c1cccc(C2(c3nc4c(c(=O)[nH]3)CN(C(=O)C(O)c3cccc(C(C)(C)C)c3)CC4)CC2)c1` (stereo not shown) [14-107], the pIC50 by setting is: under setting [1], > 7.30; under setting [2], > 8.00.

As for `CC(C)c1cccc(C2(c3nc4c(c(=O)[nH]3)CN(C(=O)C(O)c3cccc(C(F)(F)F)c3F)CC4)CC2)c1` (stereo not shown) [14-109], the pIC50 under setting [1] was > 7.30 and the pIC50 under setting [2] is > 8.00.

Regarding `CC(C)c1cccc(C2(c3nc4c(c(=O)[nH]3)CN(C(=O)C(O)c3cccc(Cl)c3F)CC4)CC2)c1` (stereo not shown) [14-110], the pIC50 is, setting by setting: under setting [1], > 7.30; under setting [2], > 8.00.

With `O=C(C(O)c1cccc(OCc2ccccc2)c1)N1CCc2nc(C3(c4ccccc4)CC3)[nH]c(=O)c2C1` (stereo not shown) [14-111], the pIC50 under setting [1] was > 7.30.

Consider `O=C(Cc1cccc(-c2cccc(Cl)c2)c1)N1CCc2nc(C3(c4cccc(Cl)c4)CC3)[nH]c(=O)c2C1` [14-114], for which, under setting [1], the pIC50 was > 7.30.

Regarding `N#Cc1ccc(-c2cccc(CC(=O)N3CCc4nc(C5(c6cccc(Cl)c6)CC5)[nH]c(=O)c4C3)c2)cc1` [14-115], under setting [1], the pIC50 is > 7.30.

`CC(C)(C)c1ccc(-c2cccc(CC(=O)N3CCc4nc(C5(c6cccc(Cl)c6)CC5)[nH]c(=O)c4C3)c2)cc1` [14-116]: the pIC50 under setting [1] is > 7.30.

Turning to `O=C(Cc1cccc(-c2ccc(C(F)(F)F)cc2)c1)N1CCc2nc(C3(c4cccc(Cl)c4)CC3)[nH]c(=O)c2C1` [14-117], under setting [1], the pIC50 was > 7.30.

Consider `O=C(Cc1cccc(-c2ccc(OC(F)(F)F)cc2)c1)N1CCc2nc(C3(c4cccc(Cl)c4)CC3)[nH]c(=O)c2C1` [14-118], for which the pIC50 under setting [1] was > 7.30.

`O=C(Cc1cccc(-c2ccc(Cl)cc2)c1)N1CCc2nc(C3(c4cccc(Cl)c4)CC3)[nH]c(=O)c2C1` [14-119]: the pIC50 under setting [1] was > 7.30.

Take `O=C(Cc1cccc(-c2coc3ccccc23)c1)N1CCc2nc(C3(c4cccc(Cl)c4)CC3)[nH]c(=O)c2C1` [14-120]: the negative logarithm of the IC50 (pIC50) under setting [1] is > 7.30.

`N#Cc1cc(Cl)cc(-c2cccc(CC(=O)N3CCc4nc(C5(c6cccc(Cl)c6)CC5)[nH]c(=O)c4C3)c2)c1` [14-121]: the pIC50 under setting [1] is > 7.30.

As for `O=C(Cc1cccc(-c2cccc(C(F)(F)F)c2)c1)N1CCc2nc(C3(c4cccc(Cl)c4)CC3)[nH]c(=O)c2C1` [14-122], the pIC50 under setting [1] is > 7.30 and the pIC50 under setting [2] is > 8.00.

`O=C([C@H](O)c1cccc(C(F)(F)F)c1)N1CCc2nc(C3(c4cc(C5CCCC5)cs4)CC3)[nH]c(=O)c2C1` [15-1]: the pIC50 is, setting by setting: under setting [1], > 7.30; under setting [2], > 8.52.

As to `CC(C)c1csc(C2(c3nc4c(c(=O)[nH]3)CN(C(=O)[C@H](O)c3cccc(C(F)(F)F)c3)CC4)CC2)c1` [15-2], the pIC50 reads like this: under setting [1], > 7.30; under setting [2], > 8.52.

For `O=C([C@H](O)c1cccc(C(F)(F)F)c1)N1CCc2nc(C3(c4cc(C5CCCCCC5)cs4)CC3)[nH]c(=O)c2C1` [15-3], the negative logarithm of the IC50 (pIC50) by setting is: under setting [1], > 7.30; under setting [2], > 8.52.

In the case of `O=C([C@H](O)c1cccc(C(F)(F)F)c1)N1CCc2nc(C3(c4cc(C5CCCCC5)cs4)CC3)[nH]c(=O)c2C1` [15-4], the pIC50 runs as follows: under setting [1], > 7.30; under setting [2], > 8.52.

Regarding `CCc1csc(C2(c3nc4c(c(=O)[nH]3)CN(C(=O)[C@H](O)c3cccc(C(F)(F)F)c3)CC4)CC2)c1` [15-5], the pIC50 under setting [1] was > 7.30 and the pIC50 under setting [2] is > 8.00.

Consider `O=C(C(O)c1cccc(-c2cccc(C(F)(F)F)c2)c1)N1CCc2nc(C3(c4cccs4)CC3)[nH]c(=O)c2C1` (stereo not shown) [15-6], for which the pIC50 was > 7.30 under setting [1] and > 8.00 under setting [2].
